Assay results: publication PMC9933482 (ACS Omega, 2023)
≈ marks a conversion by molar mass, not a printed value. Entries after “also recorded” stand apart in the source; their conditions may differ.

How the values were obtained:
[1] = tested on: human lung fibroblast cell line WI38; test: MTT cell viability, normal lung fibroblast WI38; type: cell-based; details: WI-38, read-out: IC50 in μg/mL WI38
MCF-7 cell line = test: MTT cytotoxicity assay, MCF-7; type: cell-based, human; details: for IC50: Homo sapiens, MCF7, 24 h, read-out: IC50 in μg/mL MCF-7, MTT, 24 h treatment
HePG-2 cell line = test: MTT cytotoxicity assay, HePG-2; type: cell-based, human; details: for IC50: Homo sapiens, HepG2, 24 h, read-out: IC50 in μg/mL HePG-2, MTT, 24 h treatment
[2] = target: recombinant human carbonic anhydrase XII (hCAXII) (Homo sapiens, UniProt O43570); test: hCAXII enzyme inhibition assay; type: biochemical
Chain of recombinant human carbonic anhydrase XII (hCAXII) (O43570 25-291): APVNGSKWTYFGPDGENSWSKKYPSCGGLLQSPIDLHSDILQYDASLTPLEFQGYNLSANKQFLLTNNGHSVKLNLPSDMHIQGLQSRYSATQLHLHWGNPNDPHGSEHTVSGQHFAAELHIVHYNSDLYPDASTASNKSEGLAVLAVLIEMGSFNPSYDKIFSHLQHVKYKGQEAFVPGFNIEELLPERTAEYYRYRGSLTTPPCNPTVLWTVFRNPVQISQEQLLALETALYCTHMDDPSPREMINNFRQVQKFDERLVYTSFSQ

[3] = target: human carbonic anhydrase IX (hCAIX) (Homo sapiens, UniProt Q16790); test: biochemical

COc1ccc(-c2nn(-c3ccccc3)cc2C2c3sc(=O)[nH]c3SCC2C#N)cc1 (centres unmarked) [7c, 7-(3-(4-Methoxyphenyl)-1-phenyl-1H-pyrazol-4-yl)-2-oxo-3,5,6,7-tetra-hydro-2H-thiopyrano[2,3-d]thiazole-6-carbonitrile]
IC50 [1]: 51.9 ± 3.4 µg/mL (≈ 116 µM)
IC50 (MCF-7 cell line): 29.4 ± 1.1 µg/mL (≈ 65.9 µM)
IC50 (HePG-2 cell line): 24.1 ± 2.9 µg/mL (≈ 54 µM)

O=C1NC(=S)C(=Cc2cn(-c3ccccc3)nc2-c2ccccc2)S1 [compound 3a, 5-[(1,3-Diphenyl-1H-pyrazol-4-yl)methylene]-4-thioxo-2-thiazolidinone]
IC50 [1]: 28.2 ± 2.3 µg/mL (≈ 77.6 µM)
anticancer/cytotoxic activity in words, MCF-7 (MCF-7 cell line): weak activity
IC50 (MCF-7 cell line): 52.1 ± 3.1 µg/mL (≈ 143 µM)
anticancer/cytotoxic activity in words, HePG-2 (HePG-2 cell line): weak activity
IC50 (HePG-2 cell line): 65.8 ± 3.3 µg/mL (≈ 181 µM)

Cc1ccc(-c2nn(-c3ccccc3)cc2C=C2SC(=O)NC2=S)cc1 [compound 3b, 5-[(3-(4-Methylphenyl)-1-phenyl-1H-pyrazol-4-yl)methylene]-4-thioxo-2-thiazolidinone]
IC50 [1]: 25.3 ± 2.1 µg/mL (≈ 66.9 µM)
anticancer/cytotoxic activity in words, MCF-7 (MCF-7 cell line): weak activity
IC50 (MCF-7 cell line): 56.3 ± 3.4 µg/mL (≈ 149 µM)
anticancer/cytotoxic activity in words, HePG-2 (HePG-2 cell line): weak activity
IC50 (HePG-2 cell line): 62.2 ± 3.2 µg/mL (≈ 165 µM)

COc1ccc(-c2nn(-c3ccccc3)cc2C=C2SC(=O)NC2=S)cc1 [compound 3c, 5-[(3-(4-Methoxyphenyl)-1-phenyl-1H-pyrazol-4-yl)methylene]-4-thioxo-2-thiazolidinone]
IC50 [1]: 64.5 ± 3.8 µg/mL (≈ 164 µM)
anticancer/cytotoxic activity in words, MCF-7 (MCF-7 cell line): moderate activity
IC50 (MCF-7 cell line): 37.6 ± 3.4 µg/mL (≈ 95.5 µM)
anticancer/cytotoxic activity in words, HePG-2 (HePG-2 cell line): moderate activity
IC50 (HePG-2 cell line): 31.2 ± 2.6 µg/mL (≈ 79.3 µM)

O=C1NC(=S)C(=Cc2cn(-c3ccccc3)nc2-c2ccc(Cl)cc2)S1 [compound 3d, 5-[(3-(4-Chlorophenyl)-1-phenyl-1H-pyrazol-4-yl)methylene]-4-thioxo-2-thiazolidinone]
IC50 [1]: 71.2 ± 4.2 µg/mL (≈ 179 µM)
anticancer/cytotoxic activity in words, MCF-7 (MCF-7 cell line): moderate activity
IC50 (MCF-7 cell line): 30.8 ± 2.2 µg/mL (≈ 77.5 µM)
anticancer/cytotoxic activity in words, HePG-2 (HePG-2 cell line): moderate activity
IC50 (HePG-2 cell line): 38.2 ± 2.7 µg/mL (≈ 96 µM)

O=C1NC(=S)C(=Cc2cn(-c3ccccc3)nc2-c2ccc(Br)cc2)S1 [compound 3e, 5-[(3-(4-Bromophenyl)-1-phenyl-1H-pyrazol-4-yl)methylene]-4-thioxo-2-thiazolidinone]
IC50 [1]: 41.5 ± 2.9 µg/mL (≈ 93.8 µM)
anticancer/cytotoxic activity in words, MCF-7 (MCF-7 cell line): most potent cytotoxic agent in this series; also recorded: strong anticancer activity
IC50 (MCF-7 cell line): 11.2 ± 1.5 µg/mL (≈ 25.2 µM)
IC50 [2]: 556 ± 16 nM
IC50 [3]: 349 ± 11 nM
anticancer/cytotoxic activity in words, HePG-2 (HePG-2 cell line): most potent cytotoxic agent in this series; also recorded: strong cytotoxic activity
IC50 (HePG-2 cell line): 7.83 ± 1.5 µg/mL (≈ 17.7 µM)
IC50 in μg/mL HePG-2 (HePG-2 cell line; MTT, 24 h treatment): 10.66 ± 1.0 µg/mL (≈ 24.1 µM)

O=C1C2Sc3[nH]c(=O)sc3C(c3cn(-c4ccccc4)nc3-c3ccccc3)C2C(=O)N1c1ccccc1 (centres unmarked) [compound 5a, 8-(1,3-Diphenyl-1H-pyrazol-4-yl)-6-phenyl-7a,8-dihydropyrrolo[3′,4′:5,6]-thiopyrano[2,3-d]thiazole-2,5,7(3H,4aH,6H)-trione]
IC50 [1]: 65.7 ± 1.1 µg/mL (≈ 122 µM)
IC50 (MCF-7 cell line): 30.3 ± 0.4 µg/mL (≈ 56.5 µM)
IC50 (HePG-2 cell line): 38.4 ± 2.1 µg/mL (≈ 71.6 µM)

Cc1ccc(-c2nn(-c3ccccc3)cc2C2c3sc(=O)[nH]c3SC3C(=O)N(c4ccccc4)C(=O)C32)cc1 (centres unmarked) [compound 5d, 8-(3-(4-Methylphenyl)-1-phenyl-1H-pyrazol-4-yl)-6-phenyl-7a,8-dihydro-pyrrolo[3′,4′:5,6]-thiopyrano[2,3-d]thiazole-2,5,7(3H,4aH,6H)-trione]
IC50 [1]: 49.9 ± 3.4 µg/mL (≈ 90.5 µM)
anticancer/cytotoxic activity in words, MCF-7 (MCF-7 cell line): good cytotoxic effect
IC50 (MCF-7 cell line): 25.4 ± 2.1 µg/mL (≈ 46.1 µM)
IC50 in μg/mL MCF-7 (MCF-7 cell line; MTT, 24 h treatment): 25.95 ± 2.8 µg/mL (≈ 47.1 µM)
IC50 [2]: 604 ± 33 nM
IC50 [3]: 336 ± 16 nM
anticancer/cytotoxic activity in words, HePG-2 (HePG-2 cell line): good cytotoxic effect
IC50 (HePG-2 cell line): 21.3 ± 1.8 µg/mL (≈ 38.7 µM)

COc1ccc(-c2nn(-c3ccccc3)cc2C2c3sc(=O)[nH]c3SC3C(=O)N(c4ccccc4)C(=O)C32)cc1 (centres unmarked) [compound 5e, 8-(3-(4-Methoxyphenyl)-1-phenyl-1H-pyrazol-4-yl)-6-phenyl-7a,8-dihydro-pyrrolo-[3′,4′:5,6]thiopyrano[2,3-d]thiazole-2,5,7(3H,4aH,6H)-trione]
IC50 [1]: 51.7 ± 3.7 µg/mL (≈ 91.2 µM)
IC50 (MCF-7 cell line): 35.7 ± 72 µg/mL (≈ 63 µM)
IC50 (HePG-2 cell line): 30.7 ± 0.3 µg/mL (≈ 54.2 µM)

O=C1C2Sc3[nH]c(=O)sc3C(c3cn(-c4ccccc4)nc3-c3ccc(Cl)cc3)C2C(=O)N1c1ccccc1 (centres unmarked) [compound 5f, 8-(3-(4-Chlorophenyl)-1-phenyl-1H-pyrazol-4-yl)-6-phenyl-7a,8-dihydro-pyrrolo[3′,4′:5,6]-thiopyrano[2,3-d]thiazole-2,5,7(3H,4aH,6H)-trione]
IC50 [1]: 43 ± 3.1 µg/mL (≈ 75.3 µM)
anticancer/cytotoxic activity in words, MCF-7 (MCF-7 cell line): almost moderate activity
IC50 (MCF-7 cell line): 25.4 ± 2.1 µg/mL (≈ 44.5 µM)
anticancer/cytotoxic activity in words, HePG-2 (HePG-2 cell line): almost moderate activity
IC50 (HePG-2 cell line): 29 ± 2.1 µg/mL (≈ 50.8 µM)

O=C1C2Sc3[nH]c(=O)sc3C(c3cn(-c4ccccc4)nc3-c3ccc(Br)cc3)C2C(=O)N1c1ccccc1 (centres unmarked) [compound 5g, 8-(3-(4-Bromophenyl)-1-phenyl-1H-pyrazol-4-yl)-6-phenyl-7a,8-dihydro-pyrrolo[3′,4′:5,6]-thiopyrano[2,3-d]thiazole-2,5,7(3H,4aH,6H)-trione]
IC50 [1]: 24.9 ± 2 µg/mL (≈ 40.4 µM)
anticancer/cytotoxic activity in words, MCF-7 (MCF-7 cell line): weakly active
IC50 (MCF-7 cell line): 42.9 ± 2.7 µg/mL (≈ 69.7 µM)
anticancer/cytotoxic activity in words, HePG-2 (HePG-2 cell line): weakly active
IC50 (HePG-2 cell line): 45 ± 3 µg/mL (≈ 73 µM)

N#CC1CSc2[nH]c(=O)sc2C1c1cn(-c2ccccc2)nc1-c1ccccc1 (centres unmarked) [compound 7a, 7-(1,3-Diphenyl-1H-pyrazol-4-yl)-2-oxo-3,5,6,7-tetrahydro-2H-thiopyrano-[2,3-d]thiazole-6-carbonitrile]
IC50 [1]: 54.6 ± 3.5 µg/mL (≈ 131 µM)
IC50 (MCF-7 cell line): 23.8 ± 1.9 µg/mL (≈ 57 µM)
IC50 (HePG-2 cell line): 26.8 ± 3.3 µg/mL (≈ 64.4 µM)

Cc1ccc(-c2nn(-c3ccccc3)cc2C2c3sc(=O)[nH]c3SCC2C#N)cc1 (centres unmarked) [compound 7b, 7-(3-(4-Methylphenyl)-1-phenyl-1H-pyrazol-4-yl)-2-oxo-3,5,6,7-tetra-hydro-2H-thiopyrano-[2,3-d]thiazole-6-carbonitrile]
IC50 [1]: 41.4 ± 1.7 µg/mL (≈ 96 µM)
IC50 (MCF-7 cell line): 35 ± 2.3 µg/mL (≈ 81.4 µM)
IC50 (HePG-2 cell line): 30.4 ± 1.1 µg/mL (≈ 70.7 µM)

N#CC1CSc2[nH]c(=O)sc2C1c1cn(-c2ccccc2)nc1-c1ccc(Cl)cc1 (centres unmarked) [compound 7d, 7-(3-(4-Chlorophenyl)-1-phenyl-1H-pyrazol-4-yl)-2-oxo-3,5,6,7-tetra-hydro-2H-thiopyrano[2,3-d]thiazole-6-carbonitrile]
IC50 [1]: 39.5 ± 1.7 µg/mL (≈ 87.6 µM)
anticancer/cytotoxic activity in words, MCF-7 (MCF-7 cell line): weak activity
IC50 (MCF-7 cell line): 67.3 ± 3.7 µg/mL (≈ 149 µM)
anticancer/cytotoxic activity in words, HePG-2 (HePG-2 cell line): weak activity
IC50 (HePG-2 cell line): 73 ± 4.3 µg/mL (≈ 162 µM)

CCOC(=O)C1CSc2[nH]c(=O)sc2C1c1cn(-c2ccccc2)nc1-c1ccccc1 (centres unmarked) [compound 7f, Ethyl 7-(1,3-Diphenyl-1H-pyrazol-4-yl)-2-oxo-3,5,6,7-tetrahydro-2H-thiopyrano[2,3-d]thiazole-6-carboxylate]
IC50 [1]: 44.5 ± 4.5 µg/mL (≈ 96 µM)
anticancer/cytotoxic activity in words, MCF-7 (MCF-7 cell line): moderate anticancer activity
IC50 (MCF-7 cell line): 15.9 ± 2.3 µg/mL (≈ 34.3 µM)
IC50 [2]: 1050 ± 57 nM
IC50 [3]: 928 ± 45 nM
anticancer/cytotoxic activity in words, HePG-2 (HePG-2 cell line): moderate anticancer activity
IC50 (HePG-2 cell line): 13.4 ± 1.2 µg/mL (≈ 28.8 µM)

CCOC(=O)C1CSc2[nH]c(=O)sc2C1c1cn(-c2ccccc2)nc1-c1ccc(C)cc1 (centres unmarked) [compound 7g, Ethyl 7-(3-(4-Methylphenyl)-1-phenyl-1H-pyrazol-4-yl)-2-oxo-3,5,6,7-tetrahydro-2H-thiopyrano[2,3-d]thiazole-6-carboxylate]
IC50 [1]: 30.3 ± 1.7 µg/mL (≈ 63.5 µM)
anticancer/cytotoxic activity in words, MCF-7 (MCF-7 cell line): strong cytotoxicity
IC50 (MCF-7 cell line): 12.3 ± 2.4 µg/mL (≈ 25.8 µM)
IC50 [2]: 566 ± 31 nM
IC50 [3]: 390 ± 19 nM
anticancer/cytotoxic activity in words, HePG-2 (HePG-2 cell line): strong cytotoxicity
IC50 (HePG-2 cell line): 11.9 ± 2.7 µg/mL (≈ 24.9 µM)

CCOC(=O)C1CSc2[nH]c(=O)sc2C1c1cn(-c2ccccc2)nc1-c1ccc(OC)cc1 (centres unmarked) [compound 7h, Ethyl 7-(3-(4-Methoxyphenyl)-1-phenyl-1H-pyrazol-4-yl)-2-oxo-3,5,6,7-tetrahydro-2H-thiopyrano[2,3-d]thiazole-6-carboxylate]
IC50 [1]: 25.3 ± 2.2 µg/mL (≈ 51.3 µM)
anticancer/cytotoxic activity in words, MCF-7 (MCF-7 cell line): strong cytotoxicity
IC50 (MCF-7 cell line): 11.4 ± 1.5 µg/mL (≈ 23 µM)
IC50 [2]: 409 ± 22 nM
IC50 [3]: 133 ± 6 nM
anticancer/cytotoxic activity in words, HePG-2 (HePG-2 cell line): strong cytotoxicity
IC50 (HePG-2 cell line): 12.2 ± 1.1 µg/mL (≈ 24.7 µM)

CCOC(=O)C1CSc2[nH]c(=O)sc2C1c1cn(-c2ccccc2)nc1-c1ccc(Br)cc1 (centres unmarked) [compound 7j, Ethyl 7-(3-(4-Bromophenyl)-1-phenyl-1H-pyrazol-4-yl)-2-oxo-3,5,6,7-tetra-hydro-2H-thiopyrano[2,3-d]thiazole-6-carboxylate]
IC50 [1]: 33.8 ± 2.5 µg/mL (≈ 62.2 µM)
anticancer/cytotoxic activity in words, MCF-7 (MCF-7 cell line): strong cytotoxicity
IC50 (MCF-7 cell line): 11.8 ± 4 µg/mL (≈ 21.8 µM)
IC50 [2]: 589 ± 30 nM
IC50 [3]: 239 ± 30 nM
anticancer/cytotoxic activity in words, HePG-2 (HePG-2 cell line): strong cytotoxicity
IC50 (HePG-2 cell line): 10.3 ± 4.8 µg/mL (≈ 18.9 µM)

COc1cccc2c1C(=O)c1c(O)c3c(c(O)c1C2=O)C[C@@](O)(C(=O)CO)C[C@@H]3O[C@H]1C[C@H](N)[C@H](O)[C@H](C)O1 [doxorubicin, reference compound]
IC50 [1]: 8.87 ± 0.6 µg/mL (≈ 16.3 µM)
